According to publication PMC6364417, “Kinase inhibitor library screening identifies synergistic drug combinations effective in sensitive and resistant melanoma cells” (Journal of Experimental & Clinical Cancer Research : CR, 2019):
pIC50: −log10 of the molar value. Like-named read-outs stand apart in the source and are kept apart here.

How the values were obtained:
501Mel cells (parental) = assay: Kinase inhibitor library screening, PrestoBlue cell viability, 1 or 10 μM, 72 h; conditions: 501Mel Parental, 72 h
How it was run: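 Sensitive parental cells and their resistant derivatives were exposed to library compounds for 72 h. Values represent viability as a percentage of untreated cells.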

[1] = test system: 501Mel-GP cells (Dabrafenib-resistant); assay: as above; conditions: 501Mel GP, 72 h
[2] = test system: 501Mel-XP cells (Vemurafenib-resistant); assay: as above; conditions: 501Mel XP, 72 h
A375 cells (parental) [3] = assay: as above; conditions: A375 Parental, 72 h
[4] = test system: A375-GP cells (Dabrafenib-resistant); assay: as above; conditions: A375 GP, 72 h
[5] = test system: A375-XP cells (Vemurafenib-resistant); assay: as above; conditions: A375 XP, 72 h
IGR37 cells (parental) = assay: as above; conditions: IGR37 Parental, 72 h
[6] = test system: IGR37-GP cells (Dabrafenib-resistant); assay: as above; conditions: IGR37 GP, 72 h
[7] = test system: IGR37-XP cells (Vemurafenib-resistant); assay: as above; conditions: IGR37 XP, 72 h
A375 cells (parental) [8] = assay: Dose-response curves and IC50, PrestoBlue cell viability, 72 h; type: cell-based, human; conditions: read-out: Half-maximal inhibitory concentration value (IC50), Mean
[9] = test system: A375-XP cells (Vemurafenib-resistant); assay: as above; type: cell-based, human; conditions: n.e. = did not suppress growth below 50% in the tested concentration range, read-out: Half-maximal inhibitory concentration value (IC50), Mean
[10] = test system: A375-GP cells (Dabrafenib-resistant); assay: as above; type: cell-based, human; conditions: n.e. = did not suppress growth below 50% in the tested concentration range, read-out: Half-maximal inhibitory concentration value (IC50), Mean
[11] = n.e. = did not suppress growth below 50% in the tested concentration range

How did the “cell viability, 501Mel Parental, 1μΜ” value (501Mel cells (parental); 1μΜ, in %) turn out when `CNC(=O)c1c(F)cccc1Nc1nc(Nc2cc3c(cc2OC)CCN3C(=O)CN(C)C)nc2[nH]ccc12` [GSK1838705A, reference compound] was run?
The value was 73.7.

And the “cell viability, 501Mel Parental, 10μΜ” value (501Mel cells (parental); 10μΜ, in %)?
Its value is 0.4.

What about the “cell viability, 501Mel GP, 1μΜ” value ([1]; 1μΜ, in %) of the same compound?
Its value is 75.8.

What about the “cell viability, 501Mel GP, 10μΜ” value ([1]; 10μΜ, in %) of the same compound?
Its value is -0.19.

What about the “cell viability, 501Mel XP, 1μΜ” value ([2]; 1μΜ, in %) of the same compound?
Its value is 70.4.

What about the “cell viability, 501Mel XP, 10μΜ” value ([2]; 10μΜ, in %) of the same compound?
The value was -0.3.

And the “cell viability, A375 Parental, 1μΜ” value (A375 cells (parental) [3]; 1μΜ, in %)?
The value was 68.1.

And the “cell viability, A375 Parental, 10μΜ” value (A375 cells (parental) [3]; 10μΜ, in %)?
Its value is 12.8.

What about the “cell viability, A375 GP, 1μΜ” value ([4]; 1μΜ, in %) of the same compound?
Its value is 67.8.

And the “cell viability, A375 GP, 10μΜ” value ([4]; 10μΜ, in %)?
The value was 10.4.

What about the “cell viability, A375 XP, 1μΜ” value ([5]; 1μΜ, in %) of the same compound?
The value was 70.8.

What about the “cell viability, A375 XP, 10μΜ” value ([5]; 10μΜ, in %) of the same compound?
The value was 11.1.

What about the “cell viability, IGR37 Parental, 1μΜ” value (IGR37 cells (parental); 1μΜ, in %) of the same compound?
The value was 92.2.

What about the “cell viability, IGR37 Parental, 10μΜ” value (IGR37 cells (parental); 10μΜ, in %) of the same compound?
Its value is 1.2.

What about the cell viability, IGR37 GP, 10μΜ ([6]; 10μΜ) of the same compound?
The cell viability, IGR37 GP, 10μΜ was 2%.

What about the “cell viability, IGR37 GP, 1μΜ” value ([6]; 1μΜ, in %) of the same compound?
The value was 73.7.

What about the cell viability, IGR37 XP, 10μΜ ([7]; 10μΜ) of the same compound?
Its cell viability, IGR37 XP, 10μΜ is 1%.

And the “cell viability, IGR37 XP, 1μΜ” value ([7]; 1μΜ, in %)?
Its value is 42.8.

What about the pIC50 (A375 cells (parental) [8]; [11]) of the same compound?
The pIC50 was 5.92.

And the pIC50 [9]?
Its pIC50 is 6.11.

What about the pIC50 [10] of the same compound?
The pIC50 was 6.01.

How did the “Cell viability in kinase inhibitor library screening, 501Mel Parental, 1μΜ” value (501Mel cells (parental); 1μΜ, in %) turn out when `COc1ccc(-c2cc3c(C)nc(N)nc3n([C@H]3CC[C@H](OCCO)CC3)c2=O)cn1` [PF-04691502, reference compound] was run?
Its value is 21.9.

What about the “Cell viability in kinase inhibitor library screening, 501Mel Parental, 10μΜ” value (501Mel cells (parental); 10μΜ, in %) of the same compound?
The value was 0.8.

And the “Cell viability in kinase inhibitor library screening, 501Mel GP, 1μΜ” value ([1]; 1μΜ, in %)?
Its value is 14.9.

What about the “Cell viability in kinase inhibitor library screening, 501Mel GP, 10μΜ” value ([1]; 10μΜ, in %) of the same compound?
Its value is 0.379.

And the “Cell viability in kinase inhibitor library screening, 501Mel XP, 1μΜ” value ([2]; 1μΜ, in %)?
Its value is 10.0.

What about the “Cell viability in kinase inhibitor library screening, 501Mel XP, 10μΜ” value ([2]; 10μΜ, in %) of the same compound?
Its value is -0.224.

What about the “Cell viability in kinase inhibitor library screening, A375 Parental, 10μΜ” value (A375 cells (parental) [3]; 10μΜ) of the same compound?
Its value is 2.9.

And the “Cell viability in kinase inhibitor library screening, A375 Parental, 1μΜ” value (A375 cells (parental) [3]; 1μΜ)?
The value was 25.2.

What about the “Cell viability in kinase inhibitor library screening, A375 GP, 1μΜ” value ([4]; 1μΜ) of the same compound?
The value was 22.6.

What about the “Cell viability in kinase inhibitor library screening, A375 GP, 10μΜ” value ([4]; 10μΜ) of the same compound?
Its value is 3.9.

What about the “Cell viability in kinase inhibitor library screening, A375 XP, 1μΜ” value ([5]; 1μΜ) of the same compound?
The value was 18.5.

What about the “Cell viability in kinase inhibitor library screening, A375 XP, 10μΜ” value ([5]; 10μΜ) of the same compound?
Its value is 3.3.

What about the “Cell viability in kinase inhibitor library screening, IGR37 Parental, 1μΜ” value (IGR37 cells (parental); 1μΜ, in %) of the same compound?
The value was 38.6.

What about the “Cell viability in kinase inhibitor library screening, IGR37 Parental, 10μΜ” value (IGR37 cells (parental); 10μΜ, in %) of the same compound?
Its value is 5.0.

What about the Cell viability in kinase inhibitor library screening, IGR37 GP, 10μΜ ([6]; 10μΜ) of the same compound?
Its Cell viability in kinase inhibitor library screening, IGR37 GP, 10μΜ is 7.5%.

And the “Cell viability in kinase inhibitor library screening, IGR37 GP, 1μΜ” value ([6]; 1μΜ, in %)?
Its value is 50.6.

And the Cell viability in kinase inhibitor library screening, IGR37 XP, 10μΜ ([7]; 10μΜ)?
Its Cell viability in kinase inhibitor library screening, IGR37 XP, 10μΜ is 3.2%.

What about the “Cell viability in kinase inhibitor library screening, IGR37 XP, 1μΜ” value ([7]; 1μΜ, in %) of the same compound?
The value was 22.1.

What about the pIC50 (A375 cells (parental) [8]; [11]) of the same compound?
The pIC50 was 6.53.

What about the pIC50 [9] of the same compound?
Its pIC50 is 6.72.

What about the pIC50 [10] of the same compound?
Its pIC50 is 6.60.

`CC(C)CC(=O)Nc1[nH]nc2c1CN(C(=O)C1CCN(C)CC1)C2(C)C` [PHA-793887, reference compound] was tested. Which “cell viability (kinase inhibitor library screening)” value (501Mel cells (parental); 1μΜ) did it give?
The value was 90.8%.

And the “cell viability (kinase inhibitor library screening)” value (501Mel cells (parental); 10μΜ)?
The value was 20.0%.

And the “cell viability (kinase inhibitor library screening)” value ([1]; 10μΜ)?
Its value is 25.0%.

What about the “cell viability (kinase inhibitor library screening)” value ([2]; 1μΜ) of the same compound?
Its value is 88.3%.

What about the “cell viability (kinase inhibitor library screening)” value ([2]; 10μΜ) of the same compound?
The value was 13.3%.

What about the “cell viability (kinase inhibitor library screening)” value (A375 cells (parental) [3]; 10μΜ) of the same compound?
The value was 8.5%.

What about the “cell viability (kinase inhibitor library screening)” value (A375 cells (parental) [3]; 1μΜ) of the same compound?
The value was 47.0%.

What about the “cell viability (kinase inhibitor library screening)” value ([4]; 1μΜ) of the same compound?
Its value is 52.2%.

What about the “cell viability (kinase inhibitor library screening)” value ([4]; 10μΜ) of the same compound?
Its value is 4.2%.

What about the “cell viability (kinase inhibitor library screening)” value ([5]; 1μΜ) of the same compound?
The value was 60.1%.

And the “cell viability (kinase inhibitor library screening)” value ([5]; 10μΜ)?
Its value is 10.2%.

What about the “cell viability (kinase inhibitor library screening)” value (IGR37 cells (parental); 1μΜ) of the same compound?
Its value is 100.2%.

What about the “cell viability (kinase inhibitor library screening)” value (IGR37 cells (parental); 10μΜ) of the same compound?
The value was 41.8%.

What about the “cell viability (kinase inhibitor library screening)” value ([6]; 1μΜ) of the same compound?
Its value is 96.5%.

What about the “cell viability (kinase inhibitor library screening)” value ([6]; 10μΜ) of the same compound?
Its value is 23.5%.

What about the “cell viability (kinase inhibitor library screening)” value ([7]; 1μΜ) of the same compound?
Its value is 87.3%.

What about the “cell viability (kinase inhibitor library screening)” value ([7]; 10μΜ) of the same compound?
Its value is 5.3%.

What about the pIC50 (A375 cells (parental) [8]; Homo sapiens, A-375, n.e. = did not suppress growth below 50% in the tested concentration range) of the same compound?
Its pIC50 is 6.24.

What about the pIC50 ([9]; Homo sapiens) of the same compound?
Its pIC50 is 5.98.

What about the pIC50 ([10]; Homo sapiens) of the same compound?
The pIC50 was 6.14.
